The values below come from patent US20250367099A1, “UROLITHIN COMBINATIONS” (priority 2024, published 2025).

One experiment deals with C2C12 myotubes. The experiment is described as follows: Fatty acid oxidation / mitochondrial respiration analysis on C2C12 myotubes (Seahorse XF96). Format: cell-based, Mouse. The settings on record: UA 50 uM, Astaxanthin 20 uM; for induced mitochondrial respiration / Relative Change (%) Compared to DMSO 0.1%: C2C12 myotubes; for induced mitochondrial respiration: 24 hours treatment, vs DMSO; for % increase in maximal mitochondrial respiration: Table 3: change in maximal mitochondrial respiration vs DMSO, 24 hours; for Relative Change (%) Compared to DMSO 0.1%: Table 4. The protocol:
Fatty acid oxidation analysis on C2C12 myotubes was measured with a Seahorse XF96 extracellular flux analyzer. […] were seeded at 8,000 cells/well in an XF96 cell culture microplate. Once cells reached confluence, they were differentiated with DMEM (Gibco, 31966047) supplemented with 2% Horse serum, 1% PenStrep and 1% Hepes for 5 days. Cells were treated with UA 50 uM (Amazentis) and Astaxanthin 20 uM (MedChemExpress, LKT-A7476) for 24 hours in substrate-limited media (Gibco, A1443001) supplemented with 0.5 mM glucose, 1 mM glutamine, 1% Oleic acid and 0.5 mM L-Carnitine. Maximal respiration was monitored by injection of 3 µM FCCP in the cartridge. Prior to the assay, cells were incubated in a Fatty acid oxidation medium (111 mM NaCl, 4.7 mM KCl, 1.25 mM CaCI2, 2 mM MgSO4, 1.2 mM NaH2PO4, 5 mM L-Carnitine, 5 mM Hepes, 2.5 mM Glucose) for 20 min, solution must be adjusted to pH 7.4 at 37° C. Mouse muscle C2C12 myotubes were treated for 24 hours with either Urolithin A alone, Astaxanthin alone or a combination of both compounds. Urolithin A alone induced mitochondrial respiration (+8.5%, Table 4). Astaxanthin alone induced mitochondrial respiration (+3.2% Table.4).

A further experiment deals with interleukin 6 (IL-6). The experiment is described as follows: Cytokine mix (CTX)-induced IL-6 release in normal human dermal fibroblasts (ELISA). The experiment is classed as cell-based. The settings on record: Zinc 100 uM; for Relative Change (%) Compared to CTX: Table 5, IL-6, nHDF; for Relative Change (%) Compared to CTX / reduction of CTX-mediated increase of IL-6: CTX 0.025 ng/ml; for Relative Change (%) Compared to CTX / % reduction IL-6: UA 2.5 uM; for % reduction IL-6: Table 6, IL-6 concentration in cell supernatant, CTX vs CTX + treatment; for reduction of CTX-mediated increase of IL-6: nHDF, urolithin A 2.5 uM, 24 h pre-treatment + 24 h co-treatment. As for the experimental part: The protective effects of urolithin A and Zinc against inflammation induced by a cytokines mix (Cytomix, CTX) in human dermal fibroblasts (nHDF cells) were investigated. A dose of 0.025 ng/ml of Cytokines mix was applied to induce inflammation, measured by quantifying the levels of the pro-inflammatory cytokine interleukin 6 (IL-6) in the cell culture supernatant. For the experiment, cells were first pre-treated with either i) urolithin A 2.5 uM, ii) Zinc at 100 uM, iii) a combination of urolithin A 2.5 uM and Zinc 100 uM, iv) or DMSO as control for 24 h. Then cells were co-treated with both CTX and either urolithin A or Zinc alone or in combination, as above. After 24h, IL-6 was measured in the cell supernatant to assess the ability of Urolithin A and Zinc to reduce Cytokines-induced inflammation.
Normal Human dermal fibroblasts (nHDF) purchased from Promocell (ref. C-12302) were seeded at 6000 cells per well in a 96 well plate (Greiner) using a DMEM Glutamax 1 g D-glucose (Gibco, ref 21885108) supplemented with FBS 10% (PanBiotech, ref P30-3033), 1% PenStrep (Biowest) and 1% Hepes (Biowest). All media were sterilized with a 0.45 μm filter unit (VWR). The day after the seeded cells were treated for 24 h with 1) Urolithin A (UA) resuspended in DMSO, Zinc gluconate (MedChemExpress Ref. HY-W145499) or a combination of the two at the indicated doses. Cytokine mix (“cytomix”) was added in addition of the previous treatment for another 24h, cytokines were used equally for a total and final concentration of 0.025 ng/ml (mIFN-g (roche ref.11276905001), TNF-α (Peprotech ref. 300-01A) and IL-b (Proteintech ref. 200-01B)). The medium was collected and an ELISA for Interleukin-6 were performed following the instruction provided by the supplier (Proteintech ref. KE10007). Finally, the absorbance at a wavelength of 450 nm was measured using a microplate plate reader (Fluostar Optima, BMG Labtech). IL-6 data were finally normalized over cell number, calculated with a cell viability assay (Promega, ref. G7571).

On to `CC1=C(/C=C/C(C)=C/C=C/C(C)=C/C=C/C=C(C)/C=C/C=C(C)/C=C/C2=C(C)C(=O)[C@@H](O)CC2(C)C)C(C)(C)C[C@H](O)C1=O` [Astaxanthin], for which, in the experiment on C2C12 myotubes, the induced mitochondrial respiration entry is recorded as “+3.2%”, the “% increase in maximal mitochondrial respiration” value is recorded as “+3.3%” and the “Relative Change (%) Compared to DMSO 0.1%” value is listed as 2.6%.
For `O=c1oc2cc(O)ccc2c2ccc(O)cc12` [Urolithin A], in the experiment with C2C12 myotubes, the induced mitochondrial respiration entry is recorded as “+8.5%”, the “% increase in maximal mitochondrial respiration” value is “+8.5%” and the “Relative Change (%) Compared to DMSO 0.1%” value is recorded as 8.4%. In the experiment on interleukin 6 (IL-6), the “Relative Change (%) Compared to CTX” value is recorded as −25.05%, the % reduction IL-6 was 25% and the “reduction of CTX-mediated increase of IL-6” value was 25%.
On to Zinc gluconate, for which, in the experiment on interleukin 6 (IL-6), the “Relative Change (%) Compared to CTX” value is −29.57%, the “% reduction IL-6” value is −29.6% and the “reduction of CTX-mediated increase of IL-6” value came to 29.6%.
